For data set [1], the system named is Rat2 fibroblasts stably transformed with v-Src/Hu c-Src fusion gene. The experiment in a line: Anchorage independent Src-transformed fibroblast proliferation assay. The class given is cell-based, rat. The procedure: Anchorage Independent Src-Transformed Fibroblast Proliferation Assay Rat2 fibroblasts stably transformed with a plasmid containing a CMV promotor controlled v-Src/Hu c-Src fusion gene in which the catalytic domain of human c-Src was inserted in place of the v-Src catalytic domain in the v-Src gene are used for the measurement of src dependent suspension growth. […] Multiple entries for a given compound indicate that it was tested multiple times.

The target of data set [2] is T1, Rat2 fibroblasts stably transformed with v-Src/Hu Lck fusion gene (Homo sapiens, UniProt P06239, cells depend on it, form not given).
T1 construct: Candidates are e.g. Schmidt-Ruppin A (P00524) or Prague C (P00526); The human Lck catalytic domain stands in place of the v-Src catalytic domain
The experiment in a line: Anchorage independent Lck-transformed fibroblast proliferation assay. It counts as cell-based, rat. The procedure: Anchorage Independent Lck-Transformed Fibroblast Proliferation Assay
Rat2 fibroblasts stably transformed with a plasmid containing a CMV promotor controlled v-Src/Hu Lck fusion gene in which the catalytic domain of human Lck was inserted in place of the v-Src catalytic domain in the v-Src gene are used for the measurement of src dependent suspension growth. Ultra-low cluster plates (Costar # 3474) are seeded with 10,000 cells per well on Day 1. Compound is added in serial two-fold dilutions from 10 micromolar to 0.009 micromolar on Day 2 and MTS reagent (Promega) is added on Day 5 (100 microliters of MTS/medium mix+100 microliters of medium already on the cells and the absorbance is measured at 490 nm. The results are analyzed as follows to yield an IC50 for proliferation (micromolar units) as follow: % inhibition=(Abs490 nm sample−blank)/(Abs490 nm no cmpd control−blank)×100%. The results obtained for representative compounds of this invention are listed in Table 2. Multiple entries for a given compound indicate that it was tested multiple times.

Where [3] appears, read: Rattus norvegicus, Rat2, Table 3, read-out: Src Cells IC50 μM or % inhib at 10 μM (IC50 values).
Where [4] appears, read: Table 3, read-out: Src Cells IC50 μM or % inhib at 10 μM (IC50 values).
Setting [5] is: Table 3, read-out: Lck Cells IC50.
Where [6] appears, read: Rattus norvegicus, Rat2, 120 h, Table 1, suspension growth, MTS readout Day 5, read-out: Src cells IC50.
Where [7] appears, read: Table 2, suspension growth, MTS readout Day 5, read-out: Lck cells IC50.
Where [8] appears, read: Table 1, suspension growth, MTS readout Day 5, read-out: Src cells IC50.

Several values for one entry are separate records, joined by “and”; a condition that tells them apart may be missing. Equal values may be shown once. Read-outs that look alike come from different tables or passages of the source.

T1 sequence (P06239 whole entry, change not shown, the tested form may be a part): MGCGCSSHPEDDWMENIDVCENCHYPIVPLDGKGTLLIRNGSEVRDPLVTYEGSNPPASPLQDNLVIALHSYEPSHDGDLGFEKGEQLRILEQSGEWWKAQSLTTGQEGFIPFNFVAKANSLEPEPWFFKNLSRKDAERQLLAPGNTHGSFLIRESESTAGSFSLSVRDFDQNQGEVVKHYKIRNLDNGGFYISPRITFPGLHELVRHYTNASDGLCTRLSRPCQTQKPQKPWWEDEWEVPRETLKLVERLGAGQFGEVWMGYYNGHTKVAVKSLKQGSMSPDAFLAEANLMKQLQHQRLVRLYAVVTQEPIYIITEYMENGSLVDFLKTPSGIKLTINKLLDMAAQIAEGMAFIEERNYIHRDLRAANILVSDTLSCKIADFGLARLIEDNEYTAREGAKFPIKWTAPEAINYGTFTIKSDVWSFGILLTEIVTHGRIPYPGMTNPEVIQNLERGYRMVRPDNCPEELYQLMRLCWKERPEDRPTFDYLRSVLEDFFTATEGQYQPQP

As a reminder, the melting point is the temperature of the solid-liquid transition. One may read the IC50 as the concentration at which inhibition is half-maximal. Turning to `COc1cc(Nc2c(C#N)cnc3cc(/C=C/c4ccccc4)sc23)c(Cl)cc1Cl` [Example 64, 7-[(2,4-Dichloro-5-methoxyphenyl)amino]-2-[(E)-2-phenylvinyl]thieno[3,2-b]pyridine-6-carbonitrile], the melting point was in the range of 236 to 238 °C. For the same compound, in data set [1] (setting [3]), the IC50 was 6.4 µM. Further, in data set [1] (setting [4]), the IC50 came to 5.6 µM. Moreover, in data set [2] (setting [5]), the GI50 is 7.4 µM and 7.9 µM.

In the case of `CCN(CC)Cc1ccc(-c2cc3ncc(C#N)c(Nc4cc(OC)c(Cl)cc4Cl)c3s2)nc1` [Example 133, 7-[(2,4-dichloro-5-methoxyphenyl)amino]-2-{5-[(diethylamino)methyl]pyridin-2-yl}thieno[3,2-b]pyridine-6-carbonitrile], the melting point lay in the range of 192 to 193 °C. In data set [1] (setting [3]), the IC50 turned out to be 0.436 µM. In data set [1] (setting [4]), the half-maximal inhibitory concentration (IC50) was found to be 0.289 µM. Moreover, the GI50 in data set [2] (setting [5]) is 0.082 µM and 0.097 µM.

Take `COc1cc(Nc2c(C#N)cnc3cc(Br)sc23)c(Cl)cc1Cl` [Example 3, 2-Bromo-7-[(2,4-dichloro-5-methoxyphenyl)amino]-thieno[3,2-b]pyridine-6-carbonitrile]: the melting point lay in the range of 228 to 229 °C. The concentration for half-maximal inhibition (IC50) in data set [1] (setting [6]) was 37 µM. The GI50 in data set [2] (setting [7]) is 32 µM.

Compound `COc1cc(Nc2c(C#N)cnc3cc(-c4ccc(CNCc5ccncc5)cc4)sc23)c(Cl)cc1Cl` [Example 89, 7-[(2,4-dichloro-5-methoxyphenyl)amino]-2-(4-{[(pyridin-4-ylmethyl)amino]methyl}phenyl)thieno[3,2-b]pyridine-6-carbonitrile] showed a melting point of 128 to 130 °C. Moreover, in data set [1] (setting [3]), the IC50 amounted to 1.5 µM. The IC50 in data set [1] (setting [4]) amounted to 1.21 µM. Besides, the GI50 in data set [2] (setting [5]) is 1 µM and 1.06 µM.

The compound `COc1cc(Nc2c(C#N)cnc3cc(-c4ccc(CN(C)C)o4)sc23)c(Cl)cc1Cl` [Example 76, 7-[(2,4-dichloro-5-methoxyphenyl)amino]-2-{5-[(dimethylamino)methyl]-2-furyl}thieno[3,2-b]pyridine-6-carbonitrile] showed a melting point of 200 to 202 °C. In addition, in data set [1] (setting [3]), the IC50 came out at 4.9 µM. Besides, the IC50 in data set [1] (setting [4]) is 2.6 µM. Moreover, the GI50 in data set [2] (setting [5]) is 0.91 µM and 0.99 µM.

`COc1cc(Nc2c(C#N)cnc3cc(-c4ccc(CN5CCN(CCO)CC5)cc4)sc23)c(Cl)cc1Cl` [Example 17, 7-[(2,4-Dichloro-5-methoxyphenyl)amino]-2-(4-{[4-(2-hydroxyethyl)piperazin-1-yl]methyl}phenyl)thieno[3,2-b]pyridine-6-carbonitrile] returned a melting point of 189 to 190 °C. Further, in data set [1] (setting [6]), the IC50 stood at 0.37 µM. In addition, the GI50 in data set [2] (setting [7]) is 0.14 µM.

`COc1cc(Nc2c(C#N)cnc3cc(-c4ccc(CN5CCN(C)CC5)cc4)sc23)cc(OC)c1OC` [Example 58, 2-{4-[(4-Methylpiperazin-1-yl)methyl]phenyl}-7-[(3,4,5-trimethoxyphenyl)amino]thieno[3,2-b]pyridine-6-carbonitrile] gave a melting point of 189 to 191 °C. Further, the IC50 in data set [1] (setting [6]) is 0.165 µM. Also, the IC50 in data set [1] (setting [8]) turned out to be 0.245 µM. Besides, the GI50 in data set [2] (setting [7]) stood at 0.048 µM.

`COc1cc(Nc2c(C#N)cnc3c(-c4ccc(C=O)cc4)csc23)c(Cl)cc1Cl` [Example 140, 7-[(2,4-Dichloro-5-methoxyphenyl)amino]-3-(4-formylphenyl)thieno[3,2-b]pyridine-6-carbonitrile]: the melting point was 268 °C (dec.). Further, in data set [1] (setting [3]), the IC50 is 8.46 µM. Further, in data set [1] (setting [4]), the IC50 was determined as 8.58 µM. For the same compound, in data set [2] (setting [5]), the GI50 was more than 10 µM.

In the case of `COc1cc(Nc2c(C#N)cnc3cc(-c4ccc(C5OCCO5)o4)sc23)c(Cl)cc1Cl` [Example 68, 7-[(2,4-dichloro-5-methoxyphenyl)amino]-2-[5-(1,3-dioxolan-2-yl)-2-furyl]thieno[3,2-b]pyridine-6-carbonitrile], the melting point is 187 to 189 °C. The IC50 in data set [1] (setting [3]) is 6.1 µM. Besides, the IC50 in data set [1] (setting [4]) came to 6 µM. Moreover, in data set [2] (setting [5]), the GI50 is 2.8 µM and 3 µM.

`COc1cc(Nc2c(C#N)cnc3cc(-c4ccc(CN5CCN(C)CC5)o4)sc23)c(Cl)cc1Cl` [Example 69, 7-[(2,4-dichloro-5-methoxyphenyl)amino]-2-{5-[(4-methylpiperazin-1-yl)methyl]-2-furyl}thieno[3,2-b]pyridine-6-carbonitrile] came in with a melting point of 215 to 217 °C. The IC50 in data set [1] (setting [3]) is 2.8 µM. Further, the IC50 in data set [1] (setting [4]) was determined as 3.4 µM. For the same compound, the GI50 in data set [2] (setting [5]) is 1.9 µM and 2.2 µM.

`COc1cc(Nc2c(C#N)cnc3cc(C#Cc4ccc(CN(C)C)cn4)sc23)c(Cl)cc1Cl` [Example 100, 7-[(2,4-dichloro-5-methoxyphenyl)amino]-2-({5-[(dimethylamino)methyl]pyridin-2-yl}ethynyl)thieno[3,2-b]pyridine-6-carbonitrile] registered a melting point of 215 to 217 °C. Moreover, in data set [1] (setting [3]), the half-maximal inhibitory concentration (IC50) was more than 10 µM. For the same compound, the GI50 in data set [2] (setting [5]) is 3.34 µM and 1.93 µM.

Take `COc1cc(Nc2c(C#N)cnc3cc(-c4ccc(CN(C)C)cc4)sc23)cc(OC)c1OC` [Example 61, 2-{4-[(Dimethylamino)methyl]phenyl}-7-[(3,4,5-trimethoxyphenyl)amino]thieno[3,2-b]pyridine-6-carbonitrile]: the melting point was 199 to 201 °C. The IC50 in data set [1] (setting [6]) amounted to 0.217 µM. Besides, the IC50 in data set [1] (setting [8]) is 0.279 µM. In data set [2] (setting [7]), the GI50 is 0.017 µM and 0.015 µM and 0.014 µM.

The compound `COc1cc(Nc2c(C#N)cnc3cc(-c4coc(CN5CCN(C)CC5)c4)sc23)c(Cl)cc1Cl` [Example 137, 7-[(2,4-dichloro-5-methoxyphenyl)amino]-2-{5-[(4-methylpiperazin-1-yl)methyl]-3-furyl}thieno[3,2-b]pyridine-6-carbonitrile] registered a melting point of 189 to 192 °C. In data set [1] (setting [3]), the IC50 amounted to 0.303 µM. Besides, in data set [1] (setting [4]), the IC50 was found to be 0.211 µM. Besides, the GI50 in data set [2] (setting [5]) was 0.067 µM and 0.053 µM.

Consider `COc1cc(Nc2c(C#N)cnc3cc(-c4ccc(C5OCCO5)s4)sc23)c(Cl)cc1Cl` [Example 77, 7-[(2,4-dichloro-5-methoxyphenyl)amino]-2-[5-(1,3-dioxolan-2-yl)thien-2-yl]thieno[3,2-b]pyridine-6-carbonitrile], for which the melting point lay within 213 to 217 °C. Besides, the IC50 in data set [1] (setting [3]) stood at 2.4 µM. The IC50 in data set [1] (setting [4]) came out at 1.5 µM. Besides, in data set [2] (setting [5]), the GI50 was 1.9 µM and 1.7 µM.

For `COc1cc(Nc2c(C#N)cnc3cc(-c4ccc(CN(C)C)s4)sc23)c(Cl)cc1Cl` [Example 88, 7-[(2,4-dichloro-5-methoxyphenyl)amino]-2-{5-[(dimethylamino)methyl]thien-2-yl}thieno[3,2-b]pyridine-6-carbonitrile], the melting point lay within 210 to 212 °C. In addition, the IC50 in data set [1] (setting [3]) worked out at 2.4 µM. Further, the IC50 in data set [1] (setting [4]) turned out to be 2.3 µM. Besides, in data set [2] (setting [5]), the GI50 was 0.16 µM and 0.25 µM.

On to `COc1cc(Nc2c(C#N)cnc3cc(-c4ccc(CN5CCN(c6ccccc6)CC5)cc4)sc23)c(Cl)cc1Cl` [Example 113, 7-[(2,4-dichloro-5-methoxyphenyl)amino]-2-{4-[(4-phenylpiperazin-1-yl)methyl]phenyl}thieno[3,2-b]pyridine-6-carbonitrile], for which the melting point was 238 to 240 °C. Moreover, the GI50 in data set [2] (setting [5]) was more than 10 µM.

For the compound `COc1cc(Nc2c(C#N)cnc3cc(-c4cccc(CN5CCN(C)CC5)c4)sc23)c(Cl)cc1Cl` [Example 74, 7-[(2,4-dichloro-5-methoxyphenyl)amino]-2-{3-[(4-methylpiperazin-1-yl)methyl]phenyl}thieno[3,2-b]pyridine-6-carbonitrile], the melting point is 178 to 180 °C. Moreover, the GI50 in data set [2] (setting [5]) is 0.6 µM and 0.51 µM.

Consider `COc1cc(Nc2c(C#N)cnc3cc(-c4ccc(CN5CCN(C)CC5)s4)sc23)c(Cl)cc1Cl` [Example 81, 7-[(2,4-dichloro-5-methoxyphenyl)amino]-2-{5-[(4-methylpiperazin-1-yl)methyl]thien-2-yl}thieno[3,2-b]pyridine-6-carbonitrile], for which the melting point lay in the range of 200 to 202 °C. Further, the GI50 in data set [2] (setting [5]) is 0.18 µM and 0.22 µM.

Compound `CN1CCN(Cc2ccc(-c3cc4ncc(C#N)c(Nc5ccc(Cl)cc5Cl)c4s3)cc2)CC1` [Example 119, 7-[(2,4-dichlorophenyl)amino]-2-{4-[(4-methylpiperazin-1-yl)methyl]phenyl}thieno[3,2-b]pyridine-6-carbonitrile] yielded a melting point of 245 to 247 °C. Further, the GI50 in data set [2] (setting [5]) was 1.22 µM and 1.34 µM.
